Patent EP2319852A1, “Triphenylphosphine derivatives” (Universitat Autònoma De Barcelona, priority 2009, dated 2011)

Assays:
[1] = Aerial oxidation of the phosphines in aqueous solution, followed by 31P{1H} NMR; assay type: physicochemical; conditions: for Oxidation percentage over time: distilled water, 5.10^-2 mM, open to air, vigorous stirring; for oxidize in the air: 5·10^-2 mM aqueous solution, room temperature
Procedure: 4. Aerial oxidation of the phosphines in aqueous solution
Solutions in distilled water (1 mL, 5.10^-2 mM ) of the phosphines represented below were prepared with the aim of comparing their inertness against aerial oxidation. The solutions were kept opened to air under vigorous stirring for 120 h. Aliquots were taken and analyzed by ^31P{^1H} NMR in order to quantify the oxidation progress.

[2] = Determination of water solubility of the sodium salts of the phosphines; assay type: physicochemical; conditions: saturated supernatant evaporated to dryness and weighed
Procedure: 3. Determination of water solubility of trifluoromethylated sulfonated phosphines of Formula (I)
Oversaturated aqueous solutions of the sodium salts of the phosphines of Formula (I) were prepared. The supernatant solution was ultracentrifugated, and then filtered through a nylon filter, a measured weight of this solution was evaporated to dryness and the solid residue was weighed.

For `O=S(=O)([O-])c1cccc(P(c2ccccc2)c2cccc(S(=O)(=O)[O-])c2)c1.[Na+].[Na+]` [Na2TPPDS], the “Oxidation percentage over time” value ([1]; 0 h) was 0%, the “oxidize in the air” value ([1]; 16 h) was “about 5%” and the “Oxidation percentage over time” value ([1]; 16 h) was 6%. The “Oxidation percentage over time” value ([1]; 40 h) was 33% and the “Oxidation percentage over time” value ([1]; 120 h) was 100%.

For `O=S(=O)([O-])c1cccc(P(c2ccccc2)c2ccccc2)c1.[Na+]` [NaTPPMS, triphenylphosphine monosulfonate], the “Oxidation percentage over time” value ([1]; 0 h) was 0%, the “oxidize in the air” value ([1]; 16 h) was “about 5%” and the “Oxidation percentage over time” value ([1]; 16 h) was 4%. For the same molecule, the “Oxidation percentage over time” value ([1]; 40 h) was 25% and the “Oxidation percentage over time” value ([1]; 120 h) was 68%.

In the case of `O=S(=O)(O)c1cccc(P(c2cccc(S(=O)(=O)O)c2)c2ccccc2C(F)(F)F)c1` [Phosphine 3], the solubility thermodynamic [2] is reported as 30 mg/mL.

Work on `O=S(=O)(O)c1cccc(P(c2ccc(C(F)(F)F)cc2)c2ccc(C(F)(F)F)cc2)c1` [Phosphine 4] yielded a solubility thermodynamic [2] of 2 to 12 mg/mL.

Work on `O=S(=O)(O)c1cccc(P(c2cc(C(F)(F)F)cc(C(F)(F)F)c2)c2cc(C(F)(F)F)cc(C(F)(F)F)c2)c1` [Phosphine 5] yielded a solubility thermodynamic [2] of 2 to 12 mg/mL.

For `O=S(=O)(O)c1cccc(P(c2ccccc2C(F)(F)F)c2ccccc2C(F)(F)F)c1` [Phosphine 6], the solubility thermodynamic [2] was 2 to 12 mg/mL.

`O=S(=O)(O)c1cccc(P(c2ccccc2)c2ccc(C(F)(F)F)cc2)c1` (centres unmarked) [Phosphine 7] gave a solubility thermodynamic [2] of 500 mg/mL.

`O=S(=O)(O)c1cccc(P(c2ccccc2)c2cc(C(F)(F)F)cc(C(F)(F)F)c2)c1` (centres unmarked) [Phosphine 8] showed a solubility thermodynamic [2] greater than 1000 mg/mL.

Molecule `O=S(=O)(O)c1cccc(P(c2ccccc2)c2ccccc2C(F)(F)F)c1` (centres unmarked) [Phosphine 9] has a solubility thermodynamic [2] of 210 mg/mL.
